{"source": "patent US20260285850A1", "about": "“SUBSTITUTED OXAZOLIDINONES AND IMIDAZOLINONES AS HERBICIDES” (FMC CORPORATION, priority 2023, published 2026)", "type_in_all_cases": "in vivo", "key": {"[1]": {"tested_on": "sedge, umbrella (small-flower umbrella sedge, Cyperus difformis)", "test": "Test B flooded paddy test, visual plant response rating 0-100", "settings": "250 g ai/ha, Flood, applied to paddy water, evaluated after 13 days", "method_in_brief": "(§1)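 Greenhouse, 13 d. Seedlings at 2-leaf stage, pots flooded to 3 cm, compound delivered into floodwater, water level held constant. Evaluated visually relative to controls.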"}, "[2]": {"tested_on": "ducksalad (Heteranthera limosa)", "test": "Test B flooded paddy test, visual plant response rating 0-100", "settings": "250 g ai/ha, Flood, applied to paddy water, evaluated after 13 days", "method_in_brief": "as §1"}, "[3]": {"tested_on": "barnyardgrass (Echinochloa crusgalli)", "test": "Test B flooded paddy test, visual plant response rating 0-100", "settings": "250 g ai/ha, Flood, applied to paddy water, evaluated after 13 days", "method_in_brief": "as §1"}, "rice (Oryza sativa)": {"tested_on": "rice (Oryza sativa)", "test": "Test B flooded paddy test, visual plant response rating 0-100", "settings": "250 g ai/ha, Flood, applied to paddy water, evaluated after 13 days", "method_in_brief": "as §1"}, "[4]": {"tested_on": "ryegrass, Italian (italian ryegrass, Lolium multiflorum)", "test": "Test A postemergence application, visual injury rating 0-100", "settings": "10 days", "excerpt": "(§2) Seeds of plant species selected from barnyardgrass (Echinochloa crus-galli), blackgrass (Alopecurus myosuroides), corn (Zea mays), foxtail, giant (giant foxtail, Setaria faberi), green foxtail (Setaria viridis), goosegrass (Eleusine indica), kochia (Bassia scoparia), oat, wild (wild oat, Avena fatua), palmer (palmer amaranth, palmer pigweed, Amaranthus palmeri), ragweed (common ragweed, Ambrosia artemisiifolia), ryegrass, Italian (italian ryegrass, Lolium multiflorum), soybean (Glycine max) and wheat (Triticum aestivum) were planted into a blend of loam soil and sand and treated preemergence with a directed soil spray using test chemicals formulated in a non-phytotoxic solvent mixture which included a surfactant.\n(§3) At the same time, plants selected from these crops and weed species and also galium (catchweed bedstraw, Galium aparine) and horseweed (Erigeron canadensis) were planted in pots containing the same blend of loam soil and sand and treated with postemergence applications of test chemicals formulated in the same manner. Plants ranged in height from 2 to 10 cm and were in the one- to two-leaf stage for the postemergence treatment. Treated plants and untreated controls were maintained in a greenhouse for 10 days, after which time all treated plants were compared to untreated controls and visually evaluated for injury. Plant response ratings, summarized in Table A, are based on a 0 to 100 scale where 0 is no effect and 100 is complete control. A dash (-) response means no test result."}, "kochia (Bassia scoparia) [5]": {"tested_on": "kochia (Bassia scoparia)", "test": "Test A postemergence application, visual injury rating 0-100", "settings": "10 days", "excerpt": "as §2, §3"}, "[6]": {"tested_on": "palmer (palmer amaranth, palmer pigweed, Amaranthus palmeri)", "test": "Test A postemergence application, visual injury rating 0-100", "settings": "10 days", "excerpt": "as §2, §3"}, "[7]": {"tested_on": "wheat (Triticum aestivum)", "test": "Test A postemergence application, visual injury rating 0-100", "settings": "10 days", "excerpt": "as §2, §3"}, "[8]": {"tested_on": "horseweed (Erigeron canadensis)", "test": "Test A postemergence application, visual injury rating 0-100", "settings": "10 days", "excerpt": "as §2, §3"}, "corn (Zea mays) [9]": {"tested_on": "corn (Zea mays)", "test": "Test A postemergence application, visual injury rating 0-100", "settings": "10 days", "excerpt": "as §2, §3"}, "[10]": {"tested_on": "ragweed (common ragweed, Ambrosia artemisiifolia)", "test": "Test A postemergence application, visual injury rating 0-100", "settings": "10 days", "excerpt": "as §2, §3"}, "[11]": {"tested_on": "barnyardgrass (Echinochloa crus-galli)", "test": "Test A postemergence application, visual injury rating 0-100", "settings": "10 days", "excerpt": "as §2, §3"}, "soybean (Glycine max) [12]": {"tested_on": "soybean (Glycine max)", "test": "Test A postemergence application, visual injury rating 0-100", "settings": "10 days", "excerpt": "as §2, §3"}, "[13]": {"tested_on": "oat, wild (wild oat, Avena fatua)", "test": "Test A postemergence application, visual injury rating 0-100", "settings": "10 days", "excerpt": "as §2, §3"}, "[14]": {"tested_on": "blackgrass (Alopecurus myosuroides)", "test": "Test A postemergence application, visual injury rating 0-100", "settings": "10 days", "excerpt": "as §2, §3"}, "[15]": {"tested_on": "green foxtail (Setaria viridis)", "test": "Test A postemergence application, visual injury rating 0-100", "settings": "10 days", "excerpt": "as §2, §3"}, "[16]": {"tested_on": "ryegrass, Italian (italian ryegrass, Lolium multiflorum)", "test": "Test A preemergence soil spray, visual injury rating 0-100", "settings": "10 days, 0 = no effect, 100 = complete control", "excerpt": "as §2, §3"}, "kochia (Bassia scoparia) [17]": {"tested_on": "kochia (Bassia scoparia)", "test": "Test A preemergence soil spray, visual injury rating 0-100", "settings": "10 days, 0 = no effect, 100 = complete control", "excerpt": "as §2, §3"}, "[18]": {"tested_on": "palmer (palmer amaranth, palmer pigweed, Amaranthus palmeri)", "test": "Test A preemergence soil spray, visual injury rating 0-100", "settings": "10 days, 0 = no effect, 100 = complete control", "excerpt": "as §2, §3"}, "[19]": {"tested_on": "wheat (Triticum aestivum)", "test": "Test A preemergence soil spray, visual injury rating 0-100", "settings": "10 days, 0 = no effect, 100 = complete control", "excerpt": "as §2, §3"}, "corn (Zea mays) [20]": {"tested_on": "corn (Zea mays)", "test": "Test A preemergence soil spray, visual injury rating 0-100", "settings": "10 days, 0 = no effect, 100 = complete control", "excerpt": "as §2, §3"}, "[21]": {"tested_on": "ragweed (common ragweed, Ambrosia artemisiifolia)", "test": "Test A preemergence soil spray, visual injury rating 0-100", "settings": "10 days, 0 = no effect, 100 = complete control", "excerpt": "as §2, §3"}, "[22]": {"tested_on": "barnyardgrass (Echinochloa crus-galli)", "test": "Test A preemergence soil spray, visual injury rating 0-100", "settings": "10 days, 0 = no effect, 100 = complete control", "excerpt": "as §2, §3"}, "soybean (Glycine max) [23]": {"tested_on": "soybean (Glycine max)", "test": "Test A preemergence soil spray, visual injury rating 0-100", "settings": "10 days, 0 = no effect, 100 = complete control", "excerpt": "as §2, §3"}, "[24]": {"tested_on": "oat, wild (wild oat, Avena fatua)", "test": "Test A preemergence soil spray, visual injury rating 0-100", "settings": "10 days, 0 = no effect, 100 = complete control", "excerpt": "as §2, §3"}, "[25]": {"tested_on": "blackgrass (Alopecurus myosuroides)", "test": "Test A preemergence soil spray, visual injury rating 0-100", "settings": "10 days, 0 = no effect, 100 = complete control", "excerpt": "as §2, §3"}, "[26]": {"tested_on": "green foxtail (Setaria viridis)", "test": "Test A preemergence soil spray, visual injury rating 0-100", "settings": "10 days, 0 = no effect, 100 = complete control", "excerpt": "as §2, §3"}, "[27]": {"settings": "31 g ai/ha, postemergence, 0 = no effect, 100 = complete control"}, "[28]": {"settings": "Postemergence, 125 g ai/ha, 0 is no effect, 100 is complete control"}}, "data": [{"compound": "CC1(C(=O)NC2CC=C(C(=O)O)C2)CN(c2cc(F)cc(F)c2)C(=O)O1", "note": "[Compound 38, (4S)-4-[[[3-(3,5-difluorophenyl)-5-methyl-2-oxo-5-oxazolidinyl]carbonyl]amino]-1-cyclopentene-1-carboxylate acid]", "values": [{"measurement": "Plant response rating, Sedge, Umbrella (0 to 100 scale, 0 is no effect and 100 is complete control)", "setting": "[1]", "result": 95}, {"measurement": "Plant response rating, Ducksalad (0 to 100 scale, 0 is no effect and 100 is complete control)", "setting": "[2]", "result": 55}, {"measurement": "Plant response rating, Barnyardgrass (0 to 100 scale, 0 is no effect and 100 is complete control)", "setting": "[3]", "result": 55}, {"measurement": "Plant response rating, Rice (0 to 100 scale, 0 is no effect and 100 is complete control)", "setting": "rice (Oryza sativa)", "result": 70}, {"measurement": "Ryegrass, Italian plant response rating (0-100)", "setting": "[4]; [27]", "result": 70}, {"measurement": "Ryegrass, Italian plant response rating (0 to 100 scale)", "setting": "[4]; [28]", "result": 90}, {"measurement": "Kochia plant response rating (0-100)", "setting": "kochia (Bassia scoparia) [5]; [27]", "result": 80}, {"measurement": "Kochia plant response rating (0 to 100 scale)", "setting": "kochia (Bassia scoparia) [5]; [28]", "result": 80}, {"measurement": "Amaranth, Palmer plant response rating (0-100)", "setting": "[6]; [27]", "result": 40}, {"measurement": "Amaranth, Palmer / Pigweed, Palmer plant response rating (0 to 100 scale)", "setting": "[6]; [28]", "result": 100}, {"measurement": "Wheat plant response rating (0-100)", "setting": "[7]; [27]", "result": 90}, {"measurement": "Wheat plant response rating (0 to 100 scale)", "setting": "[7]; [28]", "result": 90}, {"measurement": "Horseweed plant response rating (0-100)", "setting": "[8]; [27]", "result": 30}, {"measurement": "Horseweed plant response rating (0 to 100 scale)", "setting": "[8]; [28]", "result": 70}, {"measurement": "Corn plant response rating (0-100)", "setting": "corn (Zea mays) [9]; [27]", "result": 90}, {"measurement": "Corn plant response rating (0 to 100 scale)", "setting": "corn (Zea mays) [9]; [28]", "result": 100}, {"measurement": "Ragweed plant response rating (0-100)", "setting": "[10]; [27]", "result": 20}, {"measurement": "Ragweed plant response rating (0 to 100 scale)", "setting": "[10]; [28]", "result": 50}, {"measurement": "Barnyardgrass plant response rating (0-100)", "setting": "[11]; [27]", "result": 90}, {"measurement": "Barnyardgrass plant response rating (0 to 100 scale)", "setting": "[11]; [28]", "result": 100}, {"measurement": "Soybean plant response rating (0-100)", "setting": "soybean (Glycine max) [12]; [27]", "result": 60}, {"measurement": "Soybean plant response rating (0 to 100 scale)", "setting": "soybean (Glycine max) [12]; [28]", "result": 80}, {"measurement": "Oat, Wild plant response rating (0-100)", "setting": "[13]; [27]", "result": 90}, {"measurement": "Oat, Wild plant response rating (0 to 100 scale)", "setting": "[13]; [28]", "result": 90}, {"measurement": "Blackgrass plant response rating (0-100)", "setting": "[14]; [27]", "result": 40}, {"measurement": "Blackgrass plant response rating (0 to 100 scale)", "setting": "[14]; [28]", "result": 90}, {"measurement": "Foxtail, Green plant response rating (0-100)", "setting": "[15]; [27]", "result": 90}, {"measurement": "Foxtail, Green plant response rating (0 to 100 scale)", "setting": "[15]; [28]", "result": 90}, {"measurement": "Ryegrass, Italian plant response rating (0-100)", "setting": "[16]; 31 g ai/ha", "result": 0}, {"measurement": "Ryegrass, Italian plant response rating (0 to 100 scale)", "setting": "[16]; 125 g ai/ha", "result": 90}, {"measurement": "Kochia plant response rating (0-100)", "setting": "kochia (Bassia scoparia) [17]; 31 g ai/ha", "result": 0}, {"measurement": "Kochia plant response rating (0 to 100 scale)", "setting": "kochia (Bassia scoparia) [17]; 125 g ai/ha", "result": 20}, {"measurement": "Amaranth, Palmer plant response rating (0-100)", "setting": "[18]; 31 g ai/ha", "result": 0}, {"measurement": "Amaranth, Palmer plant response rating (0 to 100 scale)", "setting": "[18]; 125 g ai/ha", "result": 70}, {"measurement": "Wheat plant response rating (0-100)", "setting": "[19]; 31 g ai/ha", "result": 40}, {"measurement": "Wheat plant response rating (0 to 100 scale)", "setting": "[19]; 125 g ai/ha", "result": 90}, {"measurement": "Corn plant response rating (0-100)", "setting": "corn (Zea mays) [20]; 31 g ai/ha", "result": 0}, {"measurement": "Corn plant response rating (0 to 100 scale)", "setting": "corn (Zea mays) [20]; 125 g ai/ha", "result": 90}, {"measurement": "Ragweed plant response rating (0-100)", "setting": "[21]; 31 g ai/ha", "result": 0}, {"measurement": "Ragweed plant response rating (0 to 100 scale)", "setting": "[21]; 125 g ai/ha", "result": 0}, {"measurement": "Barnyardgrass plant response rating (0-100)", "setting": "[22]; 31 g ai/ha", "result": 0}, {"measurement": "Barnyardgrass plant response rating (0 to 100 scale)", "setting": "[22]; 125 g ai/ha", "result": 40}, {"measurement": "Soybean plant response rating (0-100)", "setting": "soybean (Glycine max) [23]; 31 g ai/ha", "result": 10}, {"measurement": "Soybean plant response rating (0 to 100 scale)", "setting": "soybean (Glycine max) [23]; 125 g ai/ha", "result": 80}, {"measurement": "Oat, Wild plant response rating (0-100)", "setting": "[24]; 31 g ai/ha", "result": 0}, {"measurement": "Oat, Wild plant response rating (0 to 100 scale)", "setting": "[24]; 125 g ai/ha", "result": 60}, {"measurement": "Blackgrass plant response rating (0-100)", "setting": "[25]; 31 g ai/ha", "result": 0}, {"measurement": "Blackgrass plant response rating (0 to 100 scale)", "setting": "[25]; 125 g ai/ha", "result": 50}, {"measurement": "Foxtail, Green plant response rating (0-100)", "setting": "[26]; 31 g ai/ha", "result": 0}, {"measurement": "Foxtail, Green plant response rating (0 to 100 scale)", "setting": "[26]; 125 g ai/ha", "result": 20}]}]}
